Test results: patent US20150018546A1, “HETEROCYCLIC COMPOUND HAVING ANTI-HIV ACTIVITY” (TOYAMA CHEMICAL CO., LTD., priority 2012, published 2015)

Test system: HIV-1 (JRCSF)
Experiment: Anti-HIV activity in MaRBLE cells infected with HIV-1 (JRCSF), luciferase readout
Type: cell-based
Settings: Human immunodeficiency virus 1, 168 h; MaRBLE cells (human T lymphocyte-derived HPB-M(a)) infected with HIV-1 (JRCSF); 7 days culture; rate of viral proliferation by luciferase activity; read-out: Anti-HIV activity IC50
Method: This test was conducted with reference to Journal of Clinical Microbiology, 2007, Vol. 45, p. 477-487.
The anti-HIV activity was evaluated using MaRBLE cells in which a luciferase gene to be expressed under the control of HIV-1 LTR and a CCR5 gene, etc. were introduced in human T lymphocyte-derived HPB-M(a).
A fresh medium or each appropriately diluted test compound was dispensed to 96-well plates to prepare drug solution-containing plates.
The MaRBLE cells were suspended in RPMI1640 containing 10% FCS (fetal calf serum) and penicillin/streptomycin and infected with HIV-1 (JRCSF). Then, the cells were inoculated to the drug solution-containing plates (1×10^5 cells/well). The same number of uninfected cells were inoculated as a control group to the drug solution-containing plates.
After culture at 37° C. for 7 days in a 5% CO2 atmosphere, the intracellular luciferase activity was measured using Steady-Glo Luciferase assay system (Promega Corp.).
The rate of viral proliferation was determined according to the following expression:
Rate of viral proliferation(%)=(A/B)×100
A=(Firefly luciferase activity of the compound-supplemented well)−(Firefly luciferase activity of the uninfected cells)
B=(Firefly luciferase activity of the compound-free well)−(Firefly luciferase activity of the uninfected cells)
IC50 of the compound was calculated by a plot with concentration as the logarithm and the rate of viral proliferation as the real part using the FORECAST function (linear regression method) of Microsoft Office Excel 2003.

SMILES | IC50
COc1ccc(CNc2cc(=O)n(O)c3ncncc23)cc1 [Example 1, 8-hydroxy-5-((4-methoxybenzyl)amino)pyrido[2,3-d]pyrimidin-7(8H)-one] | 110 nM
O=c1cc(NCc2ccccc2)c2cncnc2n1O [Example 2, 5-(benzylamino)-8-hydroxypyrido[2,3-d]pyrimidin-7(8H)-one] | 120 nM
O=c1cc(NCc2ccc3ccccc3c2)c2cncnc2n1O [Example 3, 8-hydroxy-5-((2-naphthylmethyl)amino)pyrido[2,3-d]pyrimidin-7(8H)-one] | 190 nM
O=c1cc(NCC2CCCCC2)c2cncnc2n1O [Example 4, 5-((cyclohexylmethyl)amino)-8-hydroxypyrido[2,3-d]pyrimidin-7(8H)-one] | 410 nM
O=c1cc(NCc2ccccn2)c2cncnc2n1O [Example 5, 8-hydroxy-5-(((pyridin-2-yl)methyl)amino)pyrido[2,3-d]pyrimidin-7(8H)-one] | 210 nM
O=c1cc(NCc2ccc(F)cc2F)c2cncnc2n1O [Example 6, 5-((2,4-difluorobenzyl)amino)-8-hydroxypyrido[2,3-d]pyrimidin-7(8H)-one] | 180 nM
CC(Nc1cc(=O)n(O)c2ncncc12)c1ccccc1 (stereo not shown) [Example 7, 8-hydroxy-5-((1-phenylethyl)amino)pyrido[2,3-d]pyrimidin-7(8H)-one] | 170 nM
O=c1cc(NC2CCCCC2)c2cncnc2n1O [Example 8, 5-(cyclohexylamino)-8-hydroxypyrido[2,3-d]pyrimidin-7(8H)-one] | 220 nM
O=c1cc(NC2Cc3ccccc3C2)c2cncnc2n1O [Example 10] | 530 nM
O=c1cc(Nc2ccccc2)c2cncnc2n1O [Example 16, 5-anilino-8-hydroxypyrido[2,3-d]pyrimidin-7(8H)-one] | 280 nM
O=c1cc(NCCc2ccccc2)c2cncnc2n1O [Example 17, 8-hydroxy-5-((2-phenylethyl)amino)pyrido[2,3-d]pyrimidin-7(8H)-one] | 690 nM
O=c1cc(NCc2cccnc2)c2cncnc2n1O [Example 18, 8-hydroxy-5-((pyridin-3-ylmethyl)amino)pyrido[2,3-d]pyrimidin-7(8H)-one] | 230 nM
Cc1ncnc2c1c(O)cc(=O)n2O [Example 21, 5,8-dihydroxy-4-methylpyrido[2,3-d]pyrimidin-7(8H)-one] | 880 nM
Cc1ncnc2c1c(NCc1cccc(C#N)c1)cc(=O)n2OCc1ccccc1 [Example 34, 3-(((8-(benzyloxy)-4-methyl-7-oxo-7,8-dihydropyrido[2,3-d]pyrimidin-5-yl)amino)methyl)benzonitrile] | 65 nM
Cc1ncnc2c1c(NCC1CCCCC1)cc(=O)n2O [Example 35, 5-((cyclohexylmethyl)amino)-8-hydroxy-4-methylpyrido[2,3-d]pyrimidin-7(8H)-one] | 68 nM
Cc1ncnc2c1c(NC1CCCCC1)cc(=O)n2O [Example 37, 5-(cyclohexylamino)-8-hydroxy-4-methylpyrido[2,3-d]pyrimidin-7(8H)-one] | 110 nM
CCN(CC)c1ccc(CNc2cc(=O)n(O)c3ncnc(C)c23)cc1 [Example 39, 5-((4-(diethylamino)benzyl)amino)-8-hydroxy-4-methylpyrido[2,3-d]pyrimidin-7(8H)-one] | 62 nM
Cc1ncnc2c1c(NCc1ccc3c(c1)OCCO3)cc(=O)n2O [Example 52, 5-(((2,3-dihydro-1,4-benzodioxin-6-yl)methyl)amino)-8-hydroxy-4-methylpyrido[2,3-d]pyrimidin-7(8H)-one] | 20 nM
Cc1ncnc2c1c(NCc1ccc(N3CCCCC3)nc1)cc(=O)n2O [Example 56, 8-hydroxy-4-methyl-5-(((6-(piperidin-1-yl)pyridin-3-yl)methyl)amino)pyrido[2,3-d]pyrimidin-7(8H)-one] | 900 nM

Further lines, results first:

IC50 | SMILES
47 nM | Cc1ncnc2c1c(NCc1ccccc1)cc(=O)n2O [Example 22, 5-(benzylamino)-8-hydroxy-4-methylpyrido[2,3-d]pyrimidin-7(8H)-one]
43 nM | Cc1ncnc2c1c(NCc1cccc(C(F)(F)F)c1)cc(=O)n2O [Example 28, 8-hydroxy-4-methyl-5-((3-(trifluoromethyl)benzyl)amino)pyrido[2,3-d]pyrimidin-7(8H)-one]
50 nM | Cc1ncnc2c1c(NCc1cccc(N(C)C)c1)cc(=O)n2O [Example 29, 5-((3-(dimethylamino)benzyl)amino)-8-hydroxy-4-methylpyrido[2,3-d]pyrimidin-7(8H)-one]
76 nM | Cc1ncnc2c1c(NCc1ccc(N(C)C)cc1)cc(=O)n2O [Example 30, 5-((4-(dimethylamino)benzyl)amino)-8-hydroxy-4-methylpyrido[2,3-d]pyrimidin-7(8H)-one]
230 nM | COc1cccc(CNc2cc(=O)n(O)c3ncnc(C)c23)c1 [Example 31, 8-hydroxy-5-((3-methoxybenzyl)amino)-4-methylpyrido[2,3-d]pyrimidin-7(8H)-one]
29 nM | COc1ccc(CNc2cc(=O)n(O)c3ncnc(C)c23)cc1 [Example 32, 8-hydroxy-5-((4-methoxybenzyl)amino)-4-methylpyrido[2,3-d]pyrimidin-7(8H)-one]
53 nM | COc1ccccc1CNc1cc(=O)n(O)c2ncnc(C)c12 [Example 33, 8-hydroxy-5-((2-methoxybenzyl)amino)-4-methylpyrido[2,3-d]pyrimidin-7(8H)-one]
86 nM | Cc1ncnc2c1c(NCc1ccccc1F)cc(=O)n2O [Example 36, 5-((2-fluorobenzyl)amino)-8-hydroxy-4-methylpyrido[2,3-d]pyrimidin-7(8H)-one]
42 nM | COc1ccc(CNc2cc(=O)n(O)c3ncnc(C)c23)c(OC)c1 [Example 38, 5-((2,4-dimethoxybenzyl)amino)-8-hydroxy-4-methylpyrido[2,3-d]pyrimidin-7(8H)-one]
48 nM | Cc1ncnc2c1c(NCc1ccc(N(C)C)nc1)cc(=O)n2O [Example 40, 5-(((6-(dimethylamino)pyridin-3-yl)methyl)amino)-8-hydroxy-4-methylpyrido[2,3-d]pyrimidin-7(8H)-one]
48 nM | Cc1ncnc2c1c(NCc1cccnc1N(C)C)cc(=O)n2O [Example 41, 5-(((2-(dimethylamino)pyridin-3-yl)methyl)amino)-8-hydroxy-4-methylpyrido[2,3-d]pyrimidin-7(8H)-one]
72 nM | Cc1ncnc2c1c(NCc1ccc(C#N)cc1)cc(=O)n2O [Example 42, 4-(((8-hydroxy-4-methyl-7-oxo-7,8-dihydropyrido[2,3-d]pyrimidin-5-yl)amino)methyl)benzonitrile]
39 nM | Cc1ccc(CNc2cc(=O)n(O)c3ncnc(C)c23)cc1 [Example 43, 8-hydroxy-4-methyl-5-((4-methylbenzyl)amino)pyrido[2,3-d]pyrimidin-7(8H)-one]
29 nM | Cc1ncnc2c1c(NCc1ccc(Cl)cc1)cc(=O)n2O [Example 44, 5-((4-chlorobenzyl)amino)-8-hydroxy-4-methylpyrido[2,3-d]pyrimidin-7(8H)-one]
170 nM | Cc1ncnc2c1c(NCc1cccc(OC(F)(F)F)c1)cc(=O)n2O [Example 45, 8-hydroxy-4-methyl-5-((3-(trifluoromethoxy)benzyl)amino)pyrido[2,3-d]pyrimidin-7(8H)-one]
40 nM | Cc1ccccc1CNc1cc(=O)n(O)c2ncnc(C)c12 [Example 46, 8-hydroxy-4-methyl-5-((2-methylbenzyl)amino)pyrido[2,3-d]pyrimidin-7(8H)-one]
59 nM | Cc1ncnc2c1c(NCc1cccc(Cl)c1)cc(=O)n2O [Example 47, 5-((3-chlorobenzyl)amino)-8-hydroxy-4-methylpyrido[2,3-d]pyrimidin-7(8H)-one]
93 nM | Cc1ncccc1CNc1cc(=O)n(O)c2ncnc(C)c12 [Example 48, 8-hydroxy-4-methyl-5-(((2-methylpyridin-3-yl)methyl)amino)pyrido[2,3-d]pyrimidin-7(8H)-one]
61 nM | Cc1ncnc2c1c(NCc1ccc3c(c1)OCO3)cc(=O)n2O [Example 49]
110 nM | Cc1ccc(CNc2cc(=O)n(O)c3ncnc(C)c23)cn1 [Example 50, 8-hydroxy-4-methyl-5-(((6-methylpyridin-3-yl)methyl)amino)pyrido[2,3-d]pyrimidin-7(8H)-one]
97 nM | Cc1ncnc2c1c(NCc1cncc(F)c1)cc(=O)n2O [Example 51, 5-(((5-fluoropyridin-3-yl)methyl)amino)-8-hydroxy-4-methylpyrido[2,3-d]pyrimidin-7(8H)-one]
80 nM | Cc1ncnc2c1c(NC(C)c1cccnc1)cc(=O)n2O (stereo not shown) [Example 53, 8-hydroxy-4-methyl-5-((1-(pyridin-3-yl)ethyl)amino)pyrido[2,3-d]pyrimidin-7(8H)-one]
110 nM | Cc1ccncc1CNc1cc(=O)n(O)c2ncnc(C)c12 [Example 54, 8-hydroxy-4-methyl-5-(((4-methylpyridin-3-yl)methyl)amino)pyrido[2,3-d]pyrimidin-7(8H)-one]
450 nM | Cc1ncnc2c1c(NCc1nc3ccccc3[nH]1)cc(=O)n2O [Example 55, 5-(((1H-benzimidazol-2-yl)methyl)amino)-8-hydroxy-4-methylpyrido[2,3-d]pyrimidin-7(8H)-one]
